Patent publication US20260102359A1, “COMBINATION TREATMENT OF DERMAL AND TRANSDERMAL FIBROTIC DISEASES, DISORDERS AND ASSOCIATED PAIN AND INFLAMMATION” (ERESINA, LLC, priority 2022, published 2026)
Counter-ions that a name gives are not always drawn.

Tested on: hDMFa myofibroblast cells

Compound | Compound Myofibroblast Cytotoxicity Activity
C=C(C)[C@H]1CC=C(C)C(=O)C1 [Cmpd 28, (S)-(+)-Carvone] | ++
Cc1c(C(=O)Nc2ccc(N3C[C@@H](C)O[C@@H](C)C3)nc2)cccc1-c1ccc(OC(F)(F)F)cc1.O=P(O)(O)O.O=P(O)(O)O [Cmpd 572, LDE225 Diphosphate] | ++
O=CC[C@H](O)[C@H](O)CO [Cmpd 46, 2-Deoxy-D-ribose] | ++++
C[C@]1(O)C[C@@H](c2nc(-c3ccc4ccc(-c5ccccc5)nc4c3)c3c(N)nccn32)C1 [Cmpd 592, Linsitinib] | +++
Cc1coc2c1C(=O)C(=O)c1c-2ccc2c(C)cccc12 [Cmpd 912, Tanshinone I] | +++++
CCCCC/C=C\C/C=C\C/C=C\CCCCC(=O)O [Cmpd 9, γ-Linolenic Acid] | +++
CCCN1CCCC[C@H]1C(=O)Nc1c(C)cccc1C.CS(=O)(=O)O [Cmpd 840, Ropivacaine Mesilate] | ++
c1ccc(-c2ccc(C(c3ccccc3)n3ccnc3)cc2)cc1 (stereo not drawn) [Cmpd 182, Bifonazole] | +++
C[C@@H](O[C@H]1OCCN(Cc2n[nH]c(=O)[nH]2)[C@H]1c1ccc(F)cc1)c1cc(C(F)(F)F)cc(C(F)(F)F)c1 [Cmpd 126, Aprepitant] | ++++
Nc1ccc(S(N)(=O)=O)cc1 [Cmpd 898, Sulfanilamide] | ++++
O=C([O-])c1ccccc1.[Na+] [Cmpd 870, Sodium benzoate] | ++++
CCCC(=O)OCOC(=O)C1=C(C)NC(C)=C(C(=O)OC)C1c1cccc(Cl)c1Cl (stereo not drawn) [Cmpd 279, Clevidipine Butyrate] | ++
C[C@@H](Oc1cc(-c2cnn(C3CCNCC3)c2)cnc1N)c1c(Cl)ccc(F)c1Cl [Cmpd 27, (R)-Crizotinib] | ++++
CC[C@H](NC(=O)[C@H](C)NC)C(=O)N1C[C@@H](O)C[C@H]1Cc1c(-c2[nH]c3cc(F)ccc3c2C[C@@H]2C[C@H](O)CN2C(=O)[C@H](CC)NC(=O)[C@H](C)NC)[nH]c2cc(F)ccc12 [Cmpd 184, Birinapant (TL32711)] | ++
CO[C@H]1/C=C/O[C@@]2(C)Oc3c(C)c(O)c4c(O)c(c(/C=N/N5CCN(C6CCCC6)CC5)c(O)c4c3C2=O)NC(=O)/C(C)=C\C=C\[C@H](C)[C@H](O)[C@@H](C)[C@@H](O)[C@@H](C)[C@H](OC(C)=O)[C@@H]1C [Cmpd 834, Rifapentine] | +++
CO[C@H]1C[C@@H]2CC[C@@H](C)[C@@](O)(O2)C(=O)C(=O)N2CCCC[C@H]2C(=O)O[C@H]([C@H](C)C[C@@H]2CC[C@@H](O)[C@H](OC)C2)CC(=O)[C@H](C)/C=C(\C)[C@@H](O)[C@@H](OC)C(=O)[C@H](C)C[C@H](C)/C=C/C=C/C=C/1C [Cmpd 820, Rapamycin (Sirolimus)] | ++++
Lecithin, Soybean [Cmpd 577] | +
CO/N=C(\C(=O)N[C@@H]1C(=O)N2C(C(=O)OCOC(=O)C(C)(C)C)=C(C)CS[C@H]12)c1csc(N)n1.Cl [Cmpd 230, Cefetamet pivoxil hydrochloride] | +++++
CC1(C)C[C@@H]1C(=O)N/C(=C\CCCCSC[C@H](N)C(=O)O)C(=O)O [Cmpd 260, Cilastatin] | ++++
CNC1(C)C2CCC(C2)C1(C)C.Cl (stereo not drawn) [Cmpd 639, Mecamylamine hydrochloride] | ++++

Compound | Compound Myofibroblast Cytotoxicity Activity
O=C1NC(=O)[C@@H](c2cn3c4c(cccc24)CCC3)[C@@H]1c1c[nH]c2ccccc12 [Cmpd 950, Tivantinib (ARQ 197)] | ++
C=C1/C(=C\C=C2/CCC[C@]3(C)[C@@H]([C@H](C)/C=C/[C@H](C)C(C)C)CC[C@@H]23)C[C@@H](O)C[C@@H]1O [Cmpd 386, Doxercalciferol] | +++
COc1cc(C(=O)NS(=O)(=O)c2ccccc2C)ccc1Cc1cn(C)c2ccc(NC(=O)OC3CCCC3)cc12 [Cmpd 1023, Zafirlukast] | +++++
C/C=C1\NC(=O)[C@H]2CSSCC/C=C/[C@H](CC(=O)N[C@H](C(C)C)C(=O)N2)OC(=O)[C@H](C(C)C)NC1=O [Cmpd 839, Romidepsin (FK228,depsipeptide)] | ++
Cc1c(C)c2c(c(C)c1O)CCC(C)(CCCC(C)CCCC(C)CCCC(C)C)O2 (racemic) [Cmpd 373, DL-α-Tocopherol] | ++
CN[C@H]1CC[C@@H](c2ccc(Cl)c(Cl)c2)c2ccccc21 [Cmpd 861, Sertraline HCl] | ++++
CNCCC=C1c2ccccc2CCc2ccccc21 [Cmpd 723, Nortriptyline (hydrochloride)] | ++
CO[C@H]1/C=C/O[C@@]2(C)Oc3c(C)c(O)c4c(O)c(cc(O)c4c3C2=O)NC(=O)/C(C)=C\C=C\[C@H](C)[C@H](O)[C@@H](C)[C@@H](O)[C@@H](C)[C@H](OC(C)=O)[C@@H]1C [Cmpd 833, Rifamycin sodium salt] | ++
NCCc1ccc(O)cc1 [Cmpd 981, Tyramine] | ++
CC(C)(C)C#Cc1cc(N(C(=O)[C@H]2CC[C@H](C)CC2)[C@H]2CC[C@H](O)CC2)c(C(=O)O)s1 [Cmpd 1014, VX-222 (VCH-222,Lomibuvir)] | ++
O=C1CCc2ccc(OCCCCN3CCN(c4cccc(Cl)c4Cl)CC3)cc2N1 [Cmpd 129, Aripiprazole] | +++
CC(=O)c1c(C)c2cnc(Nc3ccc(N4CCNCC4)cn3)nc2n(C2CCCC2)c1=O.Cl [Cmpd 763, PD 0332991 (Palbociclib) HCl] | ++++
O=C(O)c1cc(-c2ccc(F)cc2F)ccc1O [Cmpd 359, Diflunisal] | ++
CC(=O)CCC(=O)O [Cmpd 583, Levulinic acid] | ++
N[C@@H](Cc1c[nH]cn1)C(=O)O [Cmpd 586, L-Histidine] | +
N#CC(c1ccc(Cl)cc1)c1c(Cl)cc(-n2ncc(=O)[nH]c2=O)cc1Cl (stereo not drawn) [Cmpd 354, Diclazuril] | +++
Cc1cn([C@H]2C[C@H](O)[C@@H](CO)O2)c(=O)[nH]c1=O [Cmpd 943, Thymidine] | ++
CN(C(=O)CN(CCO)CC(=O)N(C)C(C)(C)Cc1ccccc1)C(C)(C)Cc1ccccc1 [Cmpd 745, Oxethazaine] | +++++
C=C1/C(=C\C=C2/CCC[C@]3(C)[C@@H]([C@H](C)CCCC(C)C)CC[C@@H]23)C[C@@H](O)C[C@@H]1O [Cmpd 98, Alfacalcidol] | +++
